According to article PMC7413254 (Nature Communications, 2020):
Read-outs that look alike come from different tables or passages of the source.

What was measured:
non-expressing oocytes [1] = experiment: cells; type: cell-based, Xenopus laevis; conditions: non-expressing oocytes, total [3H]CQ transport, normalised to the oocyte type control
Procedure, shortened: (§1)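 Using pH 5.5 ND96 at 27.5 °C, uptake is followed for 1.5 h, stopped with ice-cold buffer, and quantified as accumulated radioactivity per oocyte after SDS lysis.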

PfCRT^3D7 [2] = target: T1, PfCRT^3D7 (Plasmodium falciparum, UniProt Q8IBZ9); experiment: cell-based; type: cell-based; conditions: PfCRT3D7 oocytes, total [3H]CQ transport, normalised to the oocyte type control
Procedure, shortened: as §1

PfCRT^Dd2 [3] = target: T2, PfCRT^Dd2 (Plasmodium falciparum, UniProt Q9N623, A220S/I356T/K76T/M74I/N326S/N75E/Q271E/R371I); experiment: [3H]CQ uptake into Xenopus oocytes, cis-inhibition by unlabelled solute; type: cell-based; conditions: PfCRTDd2 oocytes, background [3H]CQ accumulation subtracted, normalised to oocyte type control
Procedure, shortened: as §1

PfCRT^Ecu1110 [4] = target: T3, PfCRT^Ecu1110 (Plasmodium falciparum, UniProt Q9N623, A220S/I356L/K76T/N326D); experiment: as above; type: cell-based; conditions: for Uptake of [3H]CQ (% PfCRTEcu1110 control), cis-inhibition / PfCRT-mediated [3H]CQ transport, cis-inhibition (% PfCRTEcu1110 control): PfCRTEcu1110 oocytes; for Uptake of [3H]CQ (% PfCRTEcu1110 control), cis-inhibition: total [3H]CQ transport, normalised to the oocyte type control; for PfCRT-mediated [3H]CQ transport, cis-inhibition (% PfCRTEcu1110 control): background [3H]CQ accumulation subtracted, normalised to oocyte type control; for [3H]CQ transport (% PfCRTEcu1110 control), cis-inhibition, PfCRTEcu1110: PfCRT-mediated component (background subtracted), sheet title says normalised to PfCRTDd2 control, mean ± SEM, SEM
Procedure, shortened: as §1

non-expressing oocytes [5] = type: cell-based, Xenopus laevis; conditions: non-expressing oocytes, total [3H]CQ transport, normalised to the oocyte type control
Procedure, shortened: (§2)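 Oocytes (ten per treatment, ≥4 independent frogs/days) were preloaded by injecting VF-6 in 25 nL ND96 at pH 5.0, 5.5, 6.0 or 7.0, or Na^+-free choline buffer, then uptake run 1.5 h, 27.5 °C, ND96 pH 5.5 by default. Internal concentrations assumed ~400 nL oocyte volume.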

PfCRT^3D7 [6] = target: T1, PfCRT^3D7; experiment: cell-based; type: cell-based; conditions: PfCRT3D7 oocytes; for Uptake of [3H]CQ (% PfCRT3D7 control), trans-stimulation: total [3H]CQ transport, normalised to the oocyte type control; for PfCRT-mediated [3H]CQ transport, trans-stimulation (% PfCRT3D7 control): normalised to oocyte type control
Procedure, shortened: as §2

PfCRT^Dd2 [7] = target: T2, PfCRT^Dd2; experiment: cell-based; type: cell-based; conditions: for Uptake of [3H]CQ (% PfCRTDd2 control), trans-stimulation / PfCRT-mediated [3H]CQ transport, trans-stimulation (% PfCRTDd2 control): PfCRTDd2 oocytes; for Uptake of [3H]CQ (% PfCRTDd2 control), trans-stimulation: total [3H]CQ transport, normalised to the oocyte type control; for PfCRT-mediated [3H]CQ transport, trans-stimulation (% PfCRTDd2 control): normalised to oocyte type control; for [3H]CQ transport (% PfCRTDd2 control), trans-stimulation, PfCRTDd2: PfCRT-mediated component (background subtracted), mean ± SEM, SEM
Procedure, shortened: as §2

PfCRT^Ecu1110 [8] = target: T3, PfCRT^Ecu1110; experiment: cell-based; type: cell-based; conditions: for Uptake of [3H]CQ (% PfCRTEcu1110 control), trans-stimulation / PfCRT-mediated [3H]CQ transport, trans-stimulation (% PfCRTEcu1110 control): PfCRTEcu1110 oocytes; for Uptake of [3H]CQ (% PfCRTEcu1110 control), trans-stimulation: total [3H]CQ transport, normalised to the oocyte type control; for PfCRT-mediated [3H]CQ transport, trans-stimulation (% PfCRTEcu1110 control): normalised to oocyte type control; for [3H]CQ transport (% PfCRTDd2 control), trans-stimulation, PfCRTEcu1110: PfCRT-mediated component (background subtracted), sheet title says normalised to PfCRTDd2 control, mean ± SEM, SEM
Procedure, shortened: as §2

PfNT1 = target: T4, PfNT1 (Plasmodium falciparum, UniProt Q8IDM6); experiment: cell-based; type: cell-based; conditions: PfNT1 oocytes, total [3H]CQ transport, normalised to the oocyte type control
T4 construct: expressed in transfected cells; host or cells: Xenopus laevis oocytes (stage V-VI), cRNA-injected
Procedure, shortened: as §2

[9] = [test solute]i = 45 mM (30 mM for some solutes due to solubility)
[10] = [test solute]i = 5 mM (intracellular)
[11] = [test solute]i = 45 mM (intracellular; 30 mM for some solutes due to solubility)
[12] = [test solute]i = 5 mM (injected)

T1 sequence (Q8IBZ9 59-398): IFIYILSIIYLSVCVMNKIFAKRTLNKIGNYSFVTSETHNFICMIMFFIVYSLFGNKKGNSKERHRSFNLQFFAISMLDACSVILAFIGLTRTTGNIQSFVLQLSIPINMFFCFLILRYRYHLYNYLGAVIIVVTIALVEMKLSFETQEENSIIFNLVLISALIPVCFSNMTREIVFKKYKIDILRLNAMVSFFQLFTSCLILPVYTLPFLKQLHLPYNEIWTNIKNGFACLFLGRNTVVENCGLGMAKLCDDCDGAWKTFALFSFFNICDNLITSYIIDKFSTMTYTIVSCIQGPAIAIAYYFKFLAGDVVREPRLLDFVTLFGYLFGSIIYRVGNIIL
T2 sequence (Q9N623 whole entry A220S/I356T/K76T/M74I/N326S/N75E/Q271E/R371I): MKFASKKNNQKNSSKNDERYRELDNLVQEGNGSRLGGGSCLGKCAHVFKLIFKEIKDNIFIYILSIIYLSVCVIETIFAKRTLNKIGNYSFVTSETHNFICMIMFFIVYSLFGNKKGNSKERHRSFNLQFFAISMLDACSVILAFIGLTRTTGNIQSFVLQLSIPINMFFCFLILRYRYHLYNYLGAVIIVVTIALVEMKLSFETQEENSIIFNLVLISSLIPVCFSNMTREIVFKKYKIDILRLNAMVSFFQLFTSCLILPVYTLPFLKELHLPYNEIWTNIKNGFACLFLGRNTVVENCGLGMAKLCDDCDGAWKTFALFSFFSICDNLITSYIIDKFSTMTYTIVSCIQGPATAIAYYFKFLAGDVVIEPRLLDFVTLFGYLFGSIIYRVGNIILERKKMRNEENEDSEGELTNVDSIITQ
T3 sequence (Q9N623 whole entry A220S/I356L/K76T/N326D): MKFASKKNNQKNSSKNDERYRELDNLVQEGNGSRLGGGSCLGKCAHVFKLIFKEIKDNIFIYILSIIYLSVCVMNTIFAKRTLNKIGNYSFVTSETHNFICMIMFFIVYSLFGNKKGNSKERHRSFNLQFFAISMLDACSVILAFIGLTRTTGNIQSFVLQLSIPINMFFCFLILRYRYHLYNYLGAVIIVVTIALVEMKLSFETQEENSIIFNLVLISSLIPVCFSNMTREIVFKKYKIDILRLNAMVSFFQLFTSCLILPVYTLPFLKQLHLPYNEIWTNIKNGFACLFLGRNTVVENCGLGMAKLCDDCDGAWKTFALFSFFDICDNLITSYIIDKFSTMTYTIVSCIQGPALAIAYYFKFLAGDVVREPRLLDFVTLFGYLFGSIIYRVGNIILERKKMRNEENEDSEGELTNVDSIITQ
T4 sequence (Q8IDM6 whole entry): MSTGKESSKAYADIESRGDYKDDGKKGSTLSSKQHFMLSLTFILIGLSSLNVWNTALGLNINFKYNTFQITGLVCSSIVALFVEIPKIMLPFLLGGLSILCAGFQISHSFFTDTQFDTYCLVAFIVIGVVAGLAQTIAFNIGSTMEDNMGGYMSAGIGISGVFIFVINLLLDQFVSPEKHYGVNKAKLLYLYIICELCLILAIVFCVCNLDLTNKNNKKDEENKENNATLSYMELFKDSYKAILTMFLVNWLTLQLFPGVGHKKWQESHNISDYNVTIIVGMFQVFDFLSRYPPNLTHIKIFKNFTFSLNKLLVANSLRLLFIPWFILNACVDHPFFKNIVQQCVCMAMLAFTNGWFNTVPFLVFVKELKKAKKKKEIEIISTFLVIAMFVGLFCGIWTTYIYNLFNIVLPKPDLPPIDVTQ

For PNAL [PL-4, host-derived peptide], the “Uptake of [3H]CQ (% non-expressing oocyte control), cis-inhibition” value (non-expressing oocytes [1]; [test solute] = 1 mM) was 100 ± 4.7 % non-expressing oocyte control, the “Uptake of [3H]CQ (% non-expressing oocyte control), cis-inhibition” value (non-expressing oocytes [1]; [test solute] = 2 mM) was 99 ± 3.6 % non-expressing oocyte control and the “Uptake of [3H]CQ (% PfCRT3D7 control), cis-inhibition” value (PfCRT^3D7 [2]; [test solute] = 0.5 mM) was 99 ± 5.3 % PfCRT3D7 control. The “Uptake of [3H]CQ (% PfCRT3D7 control), cis-inhibition” value (PfCRT^3D7 [2]; [test solute] = 1 mM) was 98 ± 5.7 % PfCRT3D7 control, the “Uptake of [3H]CQ (% PfCRT3D7 control), cis-inhibition” value (PfCRT^3D7 [2]; [test solute] = 2 mM) was 101 ± 6.3 % PfCRT3D7 control and the “PfCRT-mediated [3H]CQ transport, cis-inhibition (% PfCRTDd2 control)” value (PfCRT^Dd2 [3]; [test solute] = 0.5 mM) was 68 ± 2.6 % PfCRTDd2 control. The “PfCRT-mediated [3H]CQ transport, cis-inhibition (% PfCRTDd2 control)” value (PfCRT^Dd2 [3]; [test solute] = 1 mM) was 55 ± 4.1 % PfCRTDd2 control, the “PfCRT-mediated [3H]CQ transport, cis-inhibition (% PfCRTDd2 control)” value (PfCRT^Dd2 [3]; [test solute] = 2 mM) was 39 ± 1.8 % PfCRTDd2 control and the “Uptake of [3H]CQ (% PfCRTEcu1110 control), cis-inhibition” value (PfCRT^Ecu1110 [4]; [test solute] = 0.5 mM) was 66 ± 2.9 % PfCRTEcu1110 control. The “Uptake of [3H]CQ (% PfCRTEcu1110 control), cis-inhibition” value (PfCRT^Ecu1110 [4]; [test solute] = 1 mM) was 57 ± 2.7 % PfCRTEcu1110 control, the “Uptake of [3H]CQ (% PfCRTEcu1110 control), cis-inhibition” value (PfCRT^Ecu1110 [4]; [test solute] = 2 mM) was 45 ± 2.4 % PfCRTEcu1110 control and the “PfCRT-mediated [3H]CQ transport, cis-inhibition (% PfCRTEcu1110 control)” value (PfCRT^Ecu1110 [4]; [test solute] = 0.5 mM) was 58 ± 0.5 % PfCRTEcu1110 control. For the same substance, the “PfCRT-mediated [3H]CQ transport, cis-inhibition (% PfCRTEcu1110 control)” value (PfCRT^Ecu1110 [4]; [test solute] = 1 mM) was 52 ± 2.6 % PfCRTEcu1110 control, the “PfCRT-mediated [3H]CQ transport, cis-inhibition (% PfCRTEcu1110 control)” value (PfCRT^Ecu1110 [4]; [test solute] = 2 mM) was 39 ± 2.1 % PfCRTEcu1110 control and the “[3H]CQ transport (% PfCRTEcu1110 control), cis-inhibition, PfCRTEcu1110” value (PfCRT^Ecu1110 [4]; [test solute] = 0.5 mM) was 18 ± 0.2 % PfCRTEcu1110 control. The “[3H]CQ transport (% PfCRTEcu1110 control), cis-inhibition, PfCRTEcu1110” value (PfCRT^Ecu1110 [4]; [test solute] = 1 mM) was 16 ± 0.1 % PfCRTEcu1110 control, the “[3H]CQ transport (% PfCRTEcu1110 control), cis-inhibition, PfCRTEcu1110” value (PfCRT^Ecu1110 [4]; [test solute] = 2 mM) was 12 ± 0.3 % PfCRTEcu1110 control and the “Uptake of [3H]CQ (% non-expressing oocyte control), trans-stimulation” value (non-expressing oocytes [5]; [test solute]i = 5 mM) was 100 ± 3.8 % non-expressing oocyte control. The “Uptake of [3H]CQ (% non-expressing oocyte control), trans-stimulation” value (non-expressing oocytes [5]; [9]) was 99 ± 3.7 % non-expressing oocyte control, the “Uptake of [3H]CQ (% PfCRT3D7 control), trans-stimulation” value (PfCRT^3D7 [6]; [test solute]i = 5 mM) was 100 ± 2.2 % PfCRT3D7 control and the “Uptake of [3H]CQ (% PfCRT3D7 control), trans-stimulation” value (PfCRT^3D7 [6]; [9]) was 101 ± 2.1 % PfCRT3D7 control. For the same substance, the “PfCRT-mediated [3H]CQ transport, trans-stimulation (% PfCRT3D7 control)” value (PfCRT^3D7 [6]; [10]) was 98 ± 4.3 % PfCRT3D7 control, the “PfCRT-mediated [3H]CQ transport, trans-stimulation (% PfCRT3D7 control)” value (PfCRT^3D7 [6]; [11]) was 99 ± 3.4 % PfCRT3D7 control and the “Uptake of [3H]CQ (% PfCRTDd2 control), trans-stimulation” value (PfCRT^Dd2 [7]; [test solute]i = 5 mM) was 99 ± 3.4 % PfCRTDd2 control. For the same substance, the “Uptake of [3H]CQ (% PfCRTDd2 control), trans-stimulation” value (PfCRT^Dd2 [7]; [9]) was 97 ± 4.3 % PfCRTDd2 control, the “PfCRT-mediated [3H]CQ transport, trans-stimulation (% PfCRTDd2 control)” value (PfCRT^Dd2 [7]; [10]) was 97 ± 2.1 % PfCRTDd2 control and the “PfCRT-mediated [3H]CQ transport, trans-stimulation (% PfCRTDd2 control)” value (PfCRT^Dd2 [7]; [11]) was 95 ± 3.8 % PfCRTDd2 control. The “[3H]CQ transport (% PfCRTDd2 control), trans-stimulation, PfCRTDd2” value (PfCRT^Dd2 [7]; [12]) was 97 ± 2.1 % PfCRTDd2 control, the “[3H]CQ transport (% PfCRTDd2 control), trans-stimulation, PfCRTDd2” value (PfCRT^Dd2 [7]; [9]) was 95 ± 3.8 % PfCRTDd2 control and the “Uptake of [3H]CQ (% PfCRTEcu1110 control), trans-stimulation” value (PfCRT^Ecu1110 [8]; [test solute]i = 5 mM) was 99 ± 3.3 % PfCRTEcu1110 control. The “Uptake of [3H]CQ (% PfCRTEcu1110 control), trans-stimulation” value (PfCRT^Ecu1110 [8]; [9]) was 100 ± 2.2 % PfCRTEcu1110 control, the “PfCRT-mediated [3H]CQ transport, trans-stimulation (% PfCRTEcu1110 control)” value (PfCRT^Ecu1110 [8]; [10]) was 97 ± 4.9 % PfCRTEcu1110 control and the “PfCRT-mediated [3H]CQ transport, trans-stimulation (% PfCRTEcu1110 control)” value (PfCRT^Ecu1110 [8]; [11]) was 98 ± 3.0 % PfCRTEcu1110 control. The “[3H]CQ transport (% PfCRTDd2 control), trans-stimulation, PfCRTEcu1110” value (PfCRT^Ecu1110 [8]; [12]) was 29 ± 1.7 % PfCRTEcu1110 control, the “[3H]CQ transport (% PfCRTDd2 control), trans-stimulation, PfCRTEcu1110” value (PfCRT^Ecu1110 [8]; [9]) was 30 ± 1.4 % PfCRTEcu1110 control and the “Uptake of [3H]CQ (% PfNT1 control), trans-stimulation” value (PfNT1; [test solute]i = 5 mM) was 99 ± 3.2 % PfNT1 control. The “Uptake of [3H]CQ (% PfNT1 control), trans-stimulation” value (PfNT1; [9]) was 100 ± 2.4 % PfNT1 control.
